The values that follow come from patent US20130059874A1, “SUBSTITUTED N-PHENYL SPIROLACTAM BIPYRROLIDINES, PREPARATION AND THERAPEUTIC USE THEREOF” (SANOFI, priority 2010, published 2013).

Structures can show the parent of a compound that is named as a salt.

T1 sequence (Q865E1 1-445): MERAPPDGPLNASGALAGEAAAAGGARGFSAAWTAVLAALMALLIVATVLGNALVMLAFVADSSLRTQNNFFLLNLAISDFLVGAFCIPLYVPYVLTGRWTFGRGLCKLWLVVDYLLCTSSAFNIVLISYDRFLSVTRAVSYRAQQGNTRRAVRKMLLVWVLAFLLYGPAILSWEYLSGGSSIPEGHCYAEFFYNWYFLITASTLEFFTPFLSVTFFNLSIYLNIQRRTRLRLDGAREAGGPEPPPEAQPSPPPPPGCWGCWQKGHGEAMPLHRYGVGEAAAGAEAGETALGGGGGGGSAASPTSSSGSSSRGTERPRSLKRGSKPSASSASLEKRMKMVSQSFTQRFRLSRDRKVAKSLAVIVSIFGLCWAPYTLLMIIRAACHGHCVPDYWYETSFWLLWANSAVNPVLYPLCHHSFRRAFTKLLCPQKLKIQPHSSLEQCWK

The assay concerns the target T1, rhesus (Macacca Mulatta) H3 receptor (Macaca mulatta, UniProt Q865E1).
T1 construct: pcDNA5/FRT/TO (Invitrogen) containing the rhesus monkey (Macacca Mulatta) 445 amino acid H3 receptor
Nature of the assay: Rhesus H3 radioligand binding assay ([3H]-Methylhistamine displacement, WGA SPA beads). Particulars: [3H]-Methylhistamine 2 nM, rhesus H3 membranes, 25° C., 1 hour; Cheng-Prusoff. Also noted: species or system rhesus monkey (Macacca Mulatta). The method, then: Rhesus H3 membranes were prepared from the Flp-In T-REx 293 Cell Line (Invitrogen) stably transfected with pcDNA5/FRT/TO (Invitrogen) containing the rhesus monkey (Macacca Mulatta) 445 amino acid H3 receptor. (Genbank #AY231164). Stably transfected cultures were amplified in tissue culture flasks by standard tissue culture methods and induced to express rhesus H3 by exposure to 500 ng/ml tetracycline (Cellgro) for 24 hours. After induction, cells were dissociated from flasks utilizing Cell Stripper (Cellgro). Cells were centrifuged (1 K×g, 5 min) and pellet frozen in an ethanol-dry ice bath to disrupt cell membranes. Frozen cell pellet was re-suspended in 5 mM HEPES (pH 7.4, Invitrogen) at 10ml/1000 cm2 of harvested cells. The cell suspension was drawn through an 18 gauge needle (2-3×) followed by a 23 gauge needle (2-3×) to further disrupt cell membranes. The cell suspension was centrifuged (40K×g, 30 min). Cell membrane pellet was re-suspended in 5 mM HEPES (pH 7.4, Invitrogen) at a final protein concentration of 10 mg/ml. Rhesus H3 membranes were stored under liquid nitrogen prior to use in [3H]-Methylhistamine and GTPγS radioligand binding assays.
Rhesus H3 radioligand binding assay was performed using rhesus H3 receptor membranes (prepared as described above), [3H]-Methylhistamine (Perkin Elmer) and WGA SPA beads (wheat germ agglutinin scintillation proximity assay) beads (Amersham). The assay was performed in 96-well Opti-Plates (Packard). Each reaction contained 50 μl rhesus H3 membranes (20-30 μg total protein), 50 μl WGA SPA beads (0.1 μg) and 50 μl of 83Ci/mmol [^3H]-Methylhistamine (final concentration 2 nM) and 50 μl of tested compound. The compounds of this invention and/or vehicle were diluted with binding buffer from 10 mM DMSO stocks. Assay plates were sealed with TopSeal (Perkin Elmer) and mixed on shaker (25° C., 1 hour). Assay plates were read on TopCount scintillation counter (Packard). Results were analyzed by Hill transformation and Ki values were determined by Cheng-Prusoff equation.
For orientation: Ki means the equilibrium dissociation constant of an inhibitor or competing ligand from its target. For `COc1cc(N2CC[C@H](N3CCC[C@@H]3C)C2)ccc1N1CCC2(CCCCC2)C1=O` [Example 10], the Ki stood at 2.65 nM.
With `C[C@H]1CCCN1[C@@H]1CCN(c2ccc(N3CCC4(CCCCC4)C3=O)c(N)c2)C1` [Example 6, 2-[2-Amino-4-((2S,3′R)-2-methyl-[1,3′]bipyrrolidinyl-1′-yl)-phenyl]-2-aza-spiro[4.5]decan-1-one trifluoro-acetic acid salt] the figure was 35.8 nM; with `Cc1cc(N2CCC(N3CCC[C@@H]3C)CC2)ccc1N1CCC2(CCCCC2)C1=O` [Example 1, 2-{2-Methyl-4-[4-((S)-2-methyl-pyrrolidin-1-yl)-piperidin-1-yl]-phenyl}-2-aza-spiro[4.5]decan-1-one trifluoroacetate], 0.477 nM; with `Cc1cc(N2CC[C@H](N3CCC[C@@H]3C)C2)ccc1N1CCC2(CCC(O)CC2)C1=O` (single isomer, unassigned) [Example 11], 35 nM.
Regarding `Cc1cc(N2CCC(N3CCC[C@@H]3C)CC2)ccc1N1CCC2(CCC(O)CC2)C1=O` (stereo partly drawn) [Example 3, 8-Hydroxy-2-{2-methyl-4-[4-((S)-2-methyl-pyrrolidin-1-yl)-piperidin-1-yl]-phenyl}-2-aza-spiro[4.5]decan-1-one], the affinity corresponds to a Ki of 30.7 nM.
With `C[C@H]1CCCN1C1CCN(c2ccc(N3CCC4(CCCCC4)C3=O)c(N)c2)CC1` [Example 4, 2-{2-Amino-4-[4-((S)-2-methyl-pyrrolidin-1-yl)-piperidin-1-yl]-phenyl}-2-aza-spiro[4.5]decan-1-one trifluoro-acetate] the figure was 11.4 nM; with `Cc1cc(N2CCC(N3CCC[C@@H]3C)CC2)ccc1N1CCCC2(CCCC2)C1=O` [Example 2, 7-{2-Methyl-4-[4-((S)-2-methyl-pyrrolidin-1-yl)-piperidin-1-yl]-phenyl}-7-aza-spiro[4.5]decan-6-one trifluoro-acetic acid salt], 12.7 nM; with `C[C@H]1CCCN1[C@H]1CCN(c2ccc(N3CCC4(CCCCC4)C3=O)cc2)C1` [Example 7, 2-[4-((2S,3′S)-2-Methyl-[1,3′]bipyrrolidinyl-1′-yl)-phenyl]-2-aza-spiro[4.5]decan-1-one], 6.44 nM.
With `Cc1cc(N2CC[C@H](N3CCC[C@@H]3C)C2)ccc1N1CCC2(CCCCC2)C1=O` [Example 8, 2-[2-Methyl-4-((2S,3′S)-2-methyl-[1,3]bipyrrolidinyl-1′-yl)-phenyl]-2-aza-spiro[4.5]decan-1-one] the figure was 10.6 nM; with `C[C@H]1CCCN1[C@H]1CCN(c2ccc(N3CCC4(CCCCC4)C3=O)c(F)c2)C1` [Example 9, 2-[2-Fluoro-4-((2S,3′S)-2-methyl-[1,3′]bipyrrolidinyl-1′-yl)-phenyl]-2-aza-spiro[4.5]decan-1-one], 41.6 nM; with `Cc1cc(N2CCC(N3CCC[C@@H]3C)CC2)ccc1N1CCC2(CCC(C(=O)O)CC2)C1=O` (stereo partly drawn) [Example 5, 2-{2-Methyl-4-[4-((S)-2-methyl-pyrrolidin-1-yl)-piperidin-1-yl]-phenyl}-1-oxo-2-aza-spiro[4.5]decane-8-carboxylic acid], 58 nM.
